Data published in publication PMC8643097 (British journal of pharmacology, 2021).

Tests used:
[1] = target: Nav1.7 (Homo sapiens, UniProt Q15858); format: cell-based
[2] = target: Nav1.8 (Homo sapiens, UniProt Q9Y5Y9); format: cell-based; details: CHO-K1, read-out: % inhibition at 300 μM
Sequence of Nav1.8 (Q9Y5Y9 whole entry): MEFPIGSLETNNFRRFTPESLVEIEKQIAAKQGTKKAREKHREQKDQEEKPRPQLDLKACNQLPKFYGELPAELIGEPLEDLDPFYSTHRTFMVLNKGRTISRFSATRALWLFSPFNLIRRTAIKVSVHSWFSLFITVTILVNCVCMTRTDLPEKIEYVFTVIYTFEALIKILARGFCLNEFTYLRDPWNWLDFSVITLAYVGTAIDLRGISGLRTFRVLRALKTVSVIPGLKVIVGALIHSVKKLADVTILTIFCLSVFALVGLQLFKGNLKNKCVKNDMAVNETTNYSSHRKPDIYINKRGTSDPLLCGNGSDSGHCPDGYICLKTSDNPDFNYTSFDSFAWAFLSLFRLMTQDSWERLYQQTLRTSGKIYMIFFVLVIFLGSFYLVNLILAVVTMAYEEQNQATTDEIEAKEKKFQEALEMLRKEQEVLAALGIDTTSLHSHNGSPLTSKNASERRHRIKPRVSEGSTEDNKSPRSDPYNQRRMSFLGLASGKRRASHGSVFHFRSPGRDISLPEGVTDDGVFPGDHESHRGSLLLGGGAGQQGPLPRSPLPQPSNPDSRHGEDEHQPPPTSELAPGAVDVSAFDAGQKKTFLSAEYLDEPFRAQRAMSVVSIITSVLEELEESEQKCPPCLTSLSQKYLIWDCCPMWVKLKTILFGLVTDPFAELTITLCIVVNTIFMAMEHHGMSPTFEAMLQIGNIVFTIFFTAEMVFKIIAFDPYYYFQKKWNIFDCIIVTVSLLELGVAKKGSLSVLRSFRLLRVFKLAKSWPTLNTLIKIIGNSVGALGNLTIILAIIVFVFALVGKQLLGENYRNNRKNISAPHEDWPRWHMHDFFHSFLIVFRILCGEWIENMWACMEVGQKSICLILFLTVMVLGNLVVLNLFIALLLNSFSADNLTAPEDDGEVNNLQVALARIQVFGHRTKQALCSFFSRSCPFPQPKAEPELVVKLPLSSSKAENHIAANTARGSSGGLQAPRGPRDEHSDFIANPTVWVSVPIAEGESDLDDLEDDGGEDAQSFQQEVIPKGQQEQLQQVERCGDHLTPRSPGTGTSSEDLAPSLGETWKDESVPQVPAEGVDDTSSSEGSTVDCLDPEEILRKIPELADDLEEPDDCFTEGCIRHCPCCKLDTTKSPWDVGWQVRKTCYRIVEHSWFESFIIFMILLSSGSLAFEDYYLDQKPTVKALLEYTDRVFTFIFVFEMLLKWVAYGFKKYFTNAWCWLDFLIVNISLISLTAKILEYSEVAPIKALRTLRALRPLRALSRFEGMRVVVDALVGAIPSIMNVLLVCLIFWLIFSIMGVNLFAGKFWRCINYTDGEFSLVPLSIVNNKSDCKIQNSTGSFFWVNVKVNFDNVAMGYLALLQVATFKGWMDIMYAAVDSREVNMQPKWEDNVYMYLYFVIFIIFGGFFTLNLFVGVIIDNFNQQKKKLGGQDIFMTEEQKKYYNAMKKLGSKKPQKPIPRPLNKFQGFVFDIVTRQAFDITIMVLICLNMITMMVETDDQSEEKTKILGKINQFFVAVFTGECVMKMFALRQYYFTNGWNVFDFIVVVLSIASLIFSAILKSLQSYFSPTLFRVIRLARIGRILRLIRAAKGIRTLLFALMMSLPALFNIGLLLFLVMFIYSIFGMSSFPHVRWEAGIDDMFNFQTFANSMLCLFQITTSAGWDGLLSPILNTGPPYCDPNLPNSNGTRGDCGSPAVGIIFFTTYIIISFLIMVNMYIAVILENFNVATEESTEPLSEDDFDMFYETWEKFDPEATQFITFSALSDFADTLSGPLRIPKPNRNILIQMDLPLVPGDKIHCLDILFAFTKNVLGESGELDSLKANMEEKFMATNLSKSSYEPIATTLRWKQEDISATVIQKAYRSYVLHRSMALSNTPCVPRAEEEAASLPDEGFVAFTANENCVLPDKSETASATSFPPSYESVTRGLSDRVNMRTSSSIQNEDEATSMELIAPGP
Sequence of Nav1.8 (Q9NY72 23-215 partner): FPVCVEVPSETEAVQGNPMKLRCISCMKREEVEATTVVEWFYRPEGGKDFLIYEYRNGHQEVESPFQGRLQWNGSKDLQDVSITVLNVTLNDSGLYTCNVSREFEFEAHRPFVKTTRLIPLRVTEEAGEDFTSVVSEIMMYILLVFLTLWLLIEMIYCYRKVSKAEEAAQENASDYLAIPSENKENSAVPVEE

Sequence of Nav1.7 (Q15858 whole entry): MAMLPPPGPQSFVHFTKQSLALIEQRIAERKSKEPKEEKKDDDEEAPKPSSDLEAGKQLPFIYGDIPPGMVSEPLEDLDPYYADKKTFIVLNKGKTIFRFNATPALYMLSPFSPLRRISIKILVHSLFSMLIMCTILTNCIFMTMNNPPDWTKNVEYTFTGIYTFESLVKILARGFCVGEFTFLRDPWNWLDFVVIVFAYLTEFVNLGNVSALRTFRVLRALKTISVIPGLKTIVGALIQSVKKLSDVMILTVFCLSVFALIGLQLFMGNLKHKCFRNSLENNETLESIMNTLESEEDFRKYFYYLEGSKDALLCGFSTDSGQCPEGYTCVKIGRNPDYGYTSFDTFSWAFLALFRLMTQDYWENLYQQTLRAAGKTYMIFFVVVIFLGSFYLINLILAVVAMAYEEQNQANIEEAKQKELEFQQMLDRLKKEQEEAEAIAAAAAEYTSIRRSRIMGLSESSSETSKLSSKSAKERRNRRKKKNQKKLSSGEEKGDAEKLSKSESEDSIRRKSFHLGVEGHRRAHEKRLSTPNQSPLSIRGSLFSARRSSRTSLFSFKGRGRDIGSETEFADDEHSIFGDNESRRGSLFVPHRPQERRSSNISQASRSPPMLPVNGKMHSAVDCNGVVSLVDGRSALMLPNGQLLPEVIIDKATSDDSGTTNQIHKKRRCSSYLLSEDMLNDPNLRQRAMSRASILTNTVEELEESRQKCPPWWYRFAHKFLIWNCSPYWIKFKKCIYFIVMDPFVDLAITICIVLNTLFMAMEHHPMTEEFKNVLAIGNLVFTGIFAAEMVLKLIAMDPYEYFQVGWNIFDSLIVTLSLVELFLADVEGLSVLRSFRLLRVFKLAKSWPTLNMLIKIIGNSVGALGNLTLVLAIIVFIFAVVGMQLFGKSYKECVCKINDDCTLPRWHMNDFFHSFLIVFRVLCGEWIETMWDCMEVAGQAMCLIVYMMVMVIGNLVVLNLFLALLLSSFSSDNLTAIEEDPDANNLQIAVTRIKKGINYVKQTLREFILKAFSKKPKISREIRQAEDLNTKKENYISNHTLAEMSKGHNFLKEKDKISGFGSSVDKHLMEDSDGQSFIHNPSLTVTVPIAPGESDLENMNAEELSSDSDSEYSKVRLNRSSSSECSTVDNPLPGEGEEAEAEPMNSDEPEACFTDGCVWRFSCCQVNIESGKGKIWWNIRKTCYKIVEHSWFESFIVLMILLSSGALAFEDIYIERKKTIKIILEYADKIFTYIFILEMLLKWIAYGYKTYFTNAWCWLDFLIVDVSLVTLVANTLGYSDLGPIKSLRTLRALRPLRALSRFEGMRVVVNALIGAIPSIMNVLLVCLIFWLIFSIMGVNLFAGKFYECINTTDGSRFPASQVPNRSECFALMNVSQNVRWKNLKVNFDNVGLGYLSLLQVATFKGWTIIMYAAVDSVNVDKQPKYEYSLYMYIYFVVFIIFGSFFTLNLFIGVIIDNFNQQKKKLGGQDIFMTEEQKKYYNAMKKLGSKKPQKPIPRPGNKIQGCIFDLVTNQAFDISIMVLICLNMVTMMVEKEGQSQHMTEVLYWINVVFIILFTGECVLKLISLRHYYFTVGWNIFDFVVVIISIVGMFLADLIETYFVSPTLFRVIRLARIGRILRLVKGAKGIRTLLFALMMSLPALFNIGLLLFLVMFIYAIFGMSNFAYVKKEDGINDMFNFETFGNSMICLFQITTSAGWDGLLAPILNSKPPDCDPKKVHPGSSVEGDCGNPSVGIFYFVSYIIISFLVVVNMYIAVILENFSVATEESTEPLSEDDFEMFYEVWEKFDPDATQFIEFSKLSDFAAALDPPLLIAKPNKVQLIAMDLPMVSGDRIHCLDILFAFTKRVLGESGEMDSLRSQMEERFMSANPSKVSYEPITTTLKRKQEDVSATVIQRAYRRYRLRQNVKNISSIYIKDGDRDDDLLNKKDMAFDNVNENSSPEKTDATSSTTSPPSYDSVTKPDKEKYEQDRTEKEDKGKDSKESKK

Row | SMILES | IC50 [1] [µM] | inhibition at 300 µM [2] [%]
1 | CC[N+](CC)(CC)CC(=O)Nc1c(C)cccc1C [QX-314] | 66 | 
2 | CCC(C(=O)Nc1c(C)cccc1C)[N+]1(CC)CCCCC1 (stereo not drawn) [BW-031, 1-(1-(2,6-dimethylphenylamino)-1-oxobutan-2-yl)-1-ethylpiperidinium] | 9.5 | 30 ± 18
